Experiment [1] concerns Monoclonal Antibody F12 (FucosylGM1). As to the kind of experiment: Dot-blot immune stain of carbohydrates with monoclonal antibody F12. Conditions: 0.5 μg antigen spotted. Format: binding.
Experiment [2] deals with Monoclonal Antibody BR 96 (Le^y related). As to the kind of experiment: Dot-blot immune stain of carbohydrates with monoclonal antibody BR 96. Conditions: for Binding with BR 96 (Le^y related) by dot-blot: 0.5 μg antigen spotted, BR 96 diluted 1:500. Format: binding. The procedure:
0.5 μg KH-1 ceramide and other Ley antigen and unrelated antigens were spotted on nitrocellulose strips. Dot blot Immune staining was performed monoclonal antibody BR 96 after blocked with 6% bovine serum albumin in PBS for 1 h and incubated with antibody BR 96 (diluted 1:500 in PBS) overnight at room temperature. The strips were washed with PBS containing 0.05% Tween 20 and incubated with anti-mouse IgG antibody conjugated with horseradish peroxidase at 1:200 dilution for 3 h at room temperature. Then the strips were washed with PBS-0.05% Tween 20 and developed with 4-chloro-1-naphtol-H2O2.

Turning to Globo H ceramide [reference compound], the “Binding with F12 (FucosylGM1) by dot-blot” value in experiment [1] was “negative”. Besides, the “Binding with BR 96 (Le^y related) by dot-blot” value in experiment [2] is “negative”.

For KH-1 antigen [KH-1 ceramide], in experiment [1], the “Binding with F12 (FucosylGM1) by dot-blot” value is “negative”. For the same substance, in experiment [2], the “Binding with BR 96 (Le^y related) by dot-blot” value was “very strong”. In experiment [2] (compared with other Le^y related antigens), the “Reaction with BR 96 antibody by dot-blot” value is given as “reacted very strongly”.

The values above are taken from US20020006900A1, “Colon cancer KH-1 and N3 antigens” (priority 1997, published 2002).
